Literature values in patent US20250205255A1, “PHOSPHOLIPID COMPOSITIONS FOR TREATING INFECTIONS AND INFLAMMATION” (Celestial Therapeutics, Inc., priority 2022, published 2025).

Legend:
[1] = test system: Toll-like receptor 4 (TLR4) interacting proteins CD14 and MD-2; settings: through direct interactions with CD14 and MD-2
[2] = test system: Respiratory Syncytial Virus (RSV); settings: bronchial epithelial cells

- inflammatory responses induced by lipopolysaccharide [1]: markedly attenuate
Structure (SMILES): CCCCCCCC/C=C\CCCCCCCC(=O)O[C@H](COC(=O)CCCCCCCCCCCCCCC)COP(=O)(O)OCC(O)CO (mixture of isomers) [POPG, 1-Palmitoy-2-loleoyl-sn-glycerol-3-phospho-(1′-rac-glycerol)]
- cytopathic effects induced by RSV [2]: significantly inhibited
- interleukin-6 production ([2]; induced by RSV): significantly inhibited
- interleukin-8 production ([2]; induced by RSV): significantly inhibited
